Structures can show the parent of a compound that is named as a salt. One block for each compound: values may come before it.
What was measured:
[1] = Plasma protein binding by ultrafiltration; assay type: in vitro ADME; conditions: human plasma
Description: Protein binding was also measured as follows: Ultrafiltrate (UF) samples were obtained by centrifuging the above-mentioned Compound 1-contaning heparinized human plasma in molecular weight cutoff ultrafiltration devices (30,000 Da) at ˜3000 rpm (30 min, ˜37° C.). The UF samples (0.025 mL) were mixed with an internal standard solution—0.050 mL of ˜800 ng/mL O^13CD3-Compound 1 (in which the OCH3 group was replaced with the O^13CD3 group), diluted by 20 folds, and analyzed by reverse-phase HPLC on a 3.5 micron C-18 column. Quantitation was obtained by the multiple reaction monitoring method through positive ion Turbo-Ion Spray ionization. Ultrafiltrate standards were used to quantify the unbound drug in plasma quality control samples and unknown specimens. Non-specific protein binding (NSB) was measured (NSB=0.0415) and used as a correction factor to determine the final % protein bindings. The nominal range of quantitation for the analyte was 50 to 10,000 ng/mL. 0.400 mL aliquot of human plasma was used in the assay. Sample concentrations were determined by back-calculation using a weighted linear (1/x^2) regression of a calibration curve generated from spiked UF standards. Over the linear range, the inter-batch % CV for Compound 1 was 4.9% to 11.8%.

[2] = Pharmacokinetic analysis of plasma (Cmax, AUC0-24h) at steady state; assay type: in vivo, human; conditions: for Free AUC0-24: corrected for plasma protein binding; for Cmax / AUC(0-t): human, po, steady state, plasma; for Cmax: in vivo
[3] = test system: community-acquired pneumonia; test: Randomized, double-blind clinical trials in community-acquired pneumonia; assay type: in vivo, human; conditions: for cure rate / subjects cured: after 7 days; for cure rate: adult patients
Description: Randomized, double-blind clinical trials were conducted at 17 sites in Taiwan and South Africa to assess the effectiveness of Compound 1 in treating adult patients with community-acquired pneumonia.
The trials included a total of 265 subjects having community-acquired pneumonia. The average age of the subjects was 43.5 years old and the average body weight was 66.17 kg. About 50% of the subjects were male, and about 62% of the subjects were Black or African American, about 21% White, and about 15% Asian.
Among the 265 subjects, 86 were treated with 3 Compound 1-containing capsules (750 mg of the free base compound, i.e., (3S,5S)-7-[3-amino-5-methyl-piperidinyl]-1-cyclopropyl-1,4-dihydro-8-methoxy-4-oxo-3-quinolinecarboxylic acid) per day, 89 with 2 Compound 1-containing capsules (500 mg of the free base compound) per day, and 90 with 2 levofloxacin capsules (500 mg of levofloxacin) per day for 7 consecutive days. In each group, the drug capsules were orally taken by the subjects in the morning with a full glass of water (240 mL). Within 2 hours after taking the drugs, the subjects were not allowed to eat, but water intake (no more than 240 mL) was permitted. Overall, 10.6% of randomized subjects withdrew from the treatments.

[4] = test system: Methicillin-Resistant Staphylococcus aureus; test: Broth microdilution against MRSA isolates (CAN-ICU Study); assay type: cell-based
Text: MRSA isolates (n=193) were obtained as part of the Canadian National Intensive Care Unit (CAN-ICU) Study. 19 medical centers from all regions of Canada with active ICUs participated in the CAN-ICU study included. They were requested to only obtain “clinically significant” specimens from patients with a presumed infectious disease. Surveillance swabs, eye, ear, nose and throat swabs were excluded. Anaerobic organisms and fungal organisms were also excluded.
From September 2005-June 2006 (inclusive), each center collected a maximum of 300 consecutive pathogens isolated from blood, urine, tissue/wound, and respiratory specimens (one pathogen per cultured site per patient) of ICU patients. These isolates were shipped to the reference laboratory (Health Sciences Centre, Winnipeg, Canada) on Amies charcoal swabs, subcultured in appropriate media, and stocked in skim milk at −80° C.
The isolates' methicillin resistance was confirmed using the disk diffusion method described by the Clinical and Laboratory Standards Institute. […] Their PFGE fingerprints thus obtained were analyzed with BioNumerics v3.5 (Applied Maths St. Marten-Latem, Belgium) using a position tolerance of 1.0 and an optimization of 1.0. Strain relatedness was determined as previously described (Tenover et al., 1995). […]

[5] = test system: multidrug-resistant methicillin-resistant Staphylococcus aureus; test: Agar dilution MIC against multidrug-resistant MRSA (Taiwan isolates); assay type: cell-based
Description: Compound 1 was tested for its inhibitory effect against multidrug-resistant methicillin-resistant Staphylococcus aureus obtained by 10 medical centers in all regions of Taiwan. MICs were determined using the agar dilution methods recommended by the Clinical and Laboratory Standards Institute (CLSI-M100-S18).

[6] = test system: Methicillin-Resistant Staphylococcus aureus; test: Broth microdilution MIC against methicillin-resistant Staphylococcus aureus (Taiwan isolates); assay type: cell-based; conditions: 0.008 to 8 μg/ml
Description: (§1) The Staphylococcus aureus and Streptococcus pneumoniae isolates were obtained by 10 medical centers in all regions of Taiwan. MICs were determined using the broth microdilution method.

Streptococcus pneumoniae = test: Broth microdilution MIC against Streptococcus pneumoniae (Taiwan isolates); assay type: cell-based; conditions: 0.008 to 8 μg/ml
Description: as §1

[7] = 500 mg per day orally, 89 treated (Compound 1), 90 treated (levofloxacin)

fraction unbound at 30 min ([1]; 500 mg per day, 500 mg q24 p.o.): 0.84
Protein Binding ([1]; 750 mg q24 p.o.): 16%
Protein Binding ([1]; 1000 mg q24 p.o.): 16%
Free AUC0-24 ([2]; 500 mg q24 p.o.): 32.4 µg·h/mL
Free AUC0-24 ([2]; 750 mg q24 p.o.): 49.1 µg·h/mL
Free AUC0-24 ([2]; 1000 mg q24 p.o.): 62.9 µg·h/mL
Cmax ([2]; 500 mg q24 p.o.): 5560 ng/mL
Cmax ([2]; 750 mg q24 p.o.): 6820 ng/mL
Cmax ([2]; 1000 mg q24 p.o.): 8200 ng/mL
AUC(0-t) ([2]; 500 mg q24 p.o.): 38600 ng·h/mL
AUC(0-t) ([2]; 750 mg q24 p.o.): 58400 ng·h/mL
AUC(0-t) ([2]; 1000 mg q24 p.o.): 74800 ng·h/mL
Compound: COc1c(N2C[C@@H](C)C[C@H](N)C2)ccc2c(=O)c(C(=O)O)cn(C3CC3)c12 [Compound 1, malate salt hemihydrate of (3S,5S)-7-[3-amino-5-methyl-piperidinyl]-1-cyclopropyl-1,4-dihydro-8-methoxy-4-oxo-3-quinolinecarboxylic acid]
cure rate ([3]; 500 mg per day orally): 75.3%
subjects cured [3, 7]: 67 subjects
cure rate ([3]; 750 mg per day orally): 82.6%
subjects cured ([3]; 750 mg per day orally, 86 treated): 71 subjects
effectiveness in treating community-acquired pneumonia ([3]; oral capsules, 7 consecutive days): effective in treating community-acquired pneumonia
activity against community-associated-MRSA versus healthcare-associated-MRSA strains [4]: more active against community-associated-MRSA strains than healthcare-associated-MRSA strains
inhibitory activity against the MRSA isolates ([4]; 193 MRSA isolates): effectively inhibited MRSA
inhibitory effect against MRSA isolates that are Ciprofloxacin-resistant, Vancomycin-intermediate-resistant, and Daptomycin-nonsusceptible [5]: effective in inhibiting

Compound: COc1c(N2C[C@H](C)C[C@H](N)C2)ccc2c(=O)c(C(=O)O)cn(C3CC3)c12 [Compound 1′, malate salt hemihydrate of (3S,5R)-7-[3-amino-5-methyl-piperidinyl]-1-cyclopropyl-1,4-dihydro-8-methoxy-4-oxo-3-quinolinecarboxylic acid]
inhibitory effect against methicillin-resistant Staphylococcus aureus [6]: effective in inhibiting
inhibitory effect against Streptococcus pneumoniae (Streptococcus pneumoniae): effective in inhibiting

Compound: C[C@H]1COc2c(N3CCN(C)CC3)c(F)cc3c(=O)c(C(=O)O)cn1c23 [levofloxacin, reference compound]
cure rate ([3]; 500 mg per day orally): 80.0%
subjects cured [3, 7]: 72 subjects

From patent US20100041697A1, “PNEUMONIA TREATMENT” (TaiGen Biotechnology Co., Ltd., priority 2008, published 2010)
